Measurements: ChEMBL document CHEMBL1201862, “PubChem BioAssay data set” (2004)
Activity calls are given as the source filed them.

Key:
[1] = molecular target: T1, Carboxy-terminal domain RNA polymerase II polypeptide A small phosphatase 1 (Homo sapiens, UniProt Q9GZU7); assay: inhibitors of CTDSP1, concentration-response testing, biochemical assay, absorbance-based, actives from ultra-high-throughput screening (AID 540297); type: functional
T1 sequence (Q9GZU7 whole entry): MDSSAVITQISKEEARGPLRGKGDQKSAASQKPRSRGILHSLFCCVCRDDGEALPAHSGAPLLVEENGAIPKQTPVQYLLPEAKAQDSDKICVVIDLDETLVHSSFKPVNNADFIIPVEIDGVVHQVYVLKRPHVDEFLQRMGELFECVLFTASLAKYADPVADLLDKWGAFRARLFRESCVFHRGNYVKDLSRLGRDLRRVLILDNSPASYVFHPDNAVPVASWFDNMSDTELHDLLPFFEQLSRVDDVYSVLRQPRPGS

Prothrombin = Prothrombin (Bos taurus, UniProt P00735); assay: thrombin inhibition, dose response, biochemical, fluorescence polarization, uHTS hits (AID 602369); type: functional
[2] = molecular target: 26S proteasome non-ATPase regulatory subunit 14 (Homo sapiens, UniProt O00487); assay: inhibition of proteasome subunit RPN11 – biochemical, fluorescence polarization, uHTS hits, confirmation (AID 602368); type: functional
Sequence of 26S proteasome non-ATPase regulatory subunit 14 (O00487 whole entry): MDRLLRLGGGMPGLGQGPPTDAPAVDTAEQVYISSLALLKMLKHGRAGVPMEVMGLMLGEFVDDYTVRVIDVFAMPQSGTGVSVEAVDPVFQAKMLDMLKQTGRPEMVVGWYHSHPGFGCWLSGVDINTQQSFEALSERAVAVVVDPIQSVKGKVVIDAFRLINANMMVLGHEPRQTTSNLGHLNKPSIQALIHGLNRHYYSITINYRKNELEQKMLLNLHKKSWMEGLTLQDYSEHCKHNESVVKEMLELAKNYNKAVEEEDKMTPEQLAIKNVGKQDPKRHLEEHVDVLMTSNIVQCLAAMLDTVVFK

[3] = molecular target: 72 kDa type IV collagenase (Homo sapiens, UniProt P08253); assay: Dose Response validation of uHTS RPN11 inhibitor hits using a MMP-2 Fluorescence assay.; type: functional
Sequence of 72 kDa type IV collagenase (P08253 whole entry): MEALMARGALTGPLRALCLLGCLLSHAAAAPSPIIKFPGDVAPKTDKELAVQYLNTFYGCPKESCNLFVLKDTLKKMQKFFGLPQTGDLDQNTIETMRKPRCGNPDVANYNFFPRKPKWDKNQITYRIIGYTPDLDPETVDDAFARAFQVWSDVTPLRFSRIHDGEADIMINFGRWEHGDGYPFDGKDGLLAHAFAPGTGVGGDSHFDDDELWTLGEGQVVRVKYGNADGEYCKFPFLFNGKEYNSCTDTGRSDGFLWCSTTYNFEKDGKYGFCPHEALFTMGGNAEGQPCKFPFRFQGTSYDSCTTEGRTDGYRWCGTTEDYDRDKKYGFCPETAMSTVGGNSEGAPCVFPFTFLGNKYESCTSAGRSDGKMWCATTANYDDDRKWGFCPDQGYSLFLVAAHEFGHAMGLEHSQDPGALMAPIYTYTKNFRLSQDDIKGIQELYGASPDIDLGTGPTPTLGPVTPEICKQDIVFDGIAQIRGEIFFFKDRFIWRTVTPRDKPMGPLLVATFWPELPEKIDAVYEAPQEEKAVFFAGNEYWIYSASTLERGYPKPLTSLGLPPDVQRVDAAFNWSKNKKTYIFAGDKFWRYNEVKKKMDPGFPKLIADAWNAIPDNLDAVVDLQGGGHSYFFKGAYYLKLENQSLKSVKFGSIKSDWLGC

[4] = molecular target: T2, High affinity choline transporter 1 (Homo sapiens, UniProt Q9GZV3); assay: CHT inhibitors, dose response, cell-based, 5-point CRC, membrane potential dye (AID 504840); type: functional
T2 sequence (Q9GZV3 whole entry): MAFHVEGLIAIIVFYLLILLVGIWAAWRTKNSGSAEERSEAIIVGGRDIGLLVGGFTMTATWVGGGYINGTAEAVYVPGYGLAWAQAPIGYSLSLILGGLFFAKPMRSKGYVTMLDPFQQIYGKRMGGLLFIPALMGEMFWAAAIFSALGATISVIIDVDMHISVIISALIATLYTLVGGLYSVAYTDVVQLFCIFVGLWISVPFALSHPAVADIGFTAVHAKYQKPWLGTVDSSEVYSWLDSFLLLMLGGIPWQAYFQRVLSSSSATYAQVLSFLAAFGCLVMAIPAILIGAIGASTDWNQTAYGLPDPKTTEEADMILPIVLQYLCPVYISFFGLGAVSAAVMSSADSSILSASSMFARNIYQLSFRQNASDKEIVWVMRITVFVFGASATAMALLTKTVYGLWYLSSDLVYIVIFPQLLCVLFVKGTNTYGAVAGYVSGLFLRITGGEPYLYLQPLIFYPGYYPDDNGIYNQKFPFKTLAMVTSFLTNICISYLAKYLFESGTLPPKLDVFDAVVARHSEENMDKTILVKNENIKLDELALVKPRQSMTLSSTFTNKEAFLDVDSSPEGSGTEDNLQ

[5] = tested on: Streptococcus sp. 'group A'; assay: growth inhibition of control SK(-) GAS strain, dose response, counter-screen for streptokinase expression inhibitor project, luminescence, kanamycin, BacTiterGlo, confirmation (AID 1900); type: functional, organism-based
Streptococcus = assay: Group A Streptococcus viability loss, dose response, counter-screen for streptokinase expression inhibitor project, luminescence, BacTiterGlo (AID 1915); type: functional, organism-based;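 note: potency for reduction of bacterial viability or growth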
A-375 = assay: MITF: Counter assay: A375 proliferation Measured in Cell-Based System Using Plate Reader - 2084-03_Inhibitor_Dose_DryPowder_Activity. [Related pubchem assays (depositor defined):AID488944]; type: functional; settings: Homo sapiens
[6] = molecular target: T3, Microphthalmia-associated transcription factor (Homo sapiens, UniProt O75030); assay: TRPM1 promoter luciferase signal decrease, dose response, MITF inhibitor project, cell-based, SK-MEL-5, cherry-picked, set 3 (AID 493073); type: functional
T3 sequence (O75030 whole entry): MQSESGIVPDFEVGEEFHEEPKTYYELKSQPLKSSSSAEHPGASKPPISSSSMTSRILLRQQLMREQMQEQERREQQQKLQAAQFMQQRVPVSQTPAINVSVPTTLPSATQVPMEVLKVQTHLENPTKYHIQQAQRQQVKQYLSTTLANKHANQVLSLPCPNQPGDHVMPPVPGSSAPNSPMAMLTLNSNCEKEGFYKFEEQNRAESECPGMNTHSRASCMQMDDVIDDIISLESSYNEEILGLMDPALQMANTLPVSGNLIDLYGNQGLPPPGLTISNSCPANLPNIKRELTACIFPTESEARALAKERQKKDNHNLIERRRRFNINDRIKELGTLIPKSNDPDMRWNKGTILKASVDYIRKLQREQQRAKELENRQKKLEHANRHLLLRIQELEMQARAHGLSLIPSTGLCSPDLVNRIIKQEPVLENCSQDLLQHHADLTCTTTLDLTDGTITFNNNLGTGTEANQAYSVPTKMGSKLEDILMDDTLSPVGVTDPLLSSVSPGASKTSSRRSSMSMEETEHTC

[7] = cytotoxicity in HEK-293T cells, dose response, cytotoxicity control for TCR NF-kB inhibitor project, luminescence, T-cell screen hits (AID 489026); type: functional, cell-based;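 note: cells exposed to compound about 14 hours before the viability readout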
INS1 = assay: beta cell apoptosis inhibitors, cytokine rescue, dose response, luminescence, retest (AID 449756); type: functional, cell-based; settings: Rattus norvegicus;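 note: cell death triggered by IL-1 beta plus TNF-alpha plus IFN-gamma mixture; protective hits raise ATP signal compared with cytokine alone wells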

Question: Which IC50 [1] does the source give for `COc1cc(OC)c2ccc(=O)oc2c1C(CC(=O)N1CCCC(C)C1)c1ccc2c(c1)OCO2` (centres undefined) here?
Answer: 14.3 µM (active)

Question: Which IC50 [1] does the source give for `O=C(CSc1nc2c(sc3ccccc32)c(=O)n1CCO)NCc1ccco1` here?
Answer: 8.39 µM (active)

Question: With `O=C(N/N=C/c1ccccc1F)c1cc2c(ccc3ccccc32)o1` as the compound, how does the IC50 (Prothrombin) read?
Answer: 77.5 µM (active)

Question: What about the IC50 [1] of the same compound?
Answer: 4.45 µM (active)

Question: What about the IC50 [2] of the same compound?
Answer: 18.2 µM (active)

Question: And the IC50 [3]?
Answer: > 100 µM (inactive)

Question: What does the source list for `Oc1c(Br)cc(Br)cc1/C=N/c1nc2c(s1)CCCC2`?
Answer: IC50 [4]: 13.2 µM (active); EC50 [5]: 7.39 µM (active); EC50 (Streptococcus): 7.68 µM (active)

Question: With `O=C(O/N=C(/c1ccccc1)c1ccncc1)c1ccccc1[N+](=O)[O-]` as the compound, how does the IC50 [4] read?
Answer: 13.2 µM (active)

Question: For `COc1ccc(C(=O)/C(C#N)=N/Nc2ccc([N+](=O)[O-])cc2)cc1`, which AC50 (A-375) is on record?
Answer: 28.8 µM (active)

Question: And the AC50 [6]?
Answer: 8.26 µM (active)

Question: What about the IC50 [7] of the same compound?
Answer: > 80 µM (inactive)

Question: And the AC50 (INS1)?
Answer: 1.9 µM (active)
